Measurements as given in patent US4395558A, “9-Epi-mitomycin B and D compounds” (Kyowa Hakko Kogyo Kabushiki Kaisha, priority 1979, dated 1983).
Converted amounts (≈) assume the structure as drawn. Like-named read-outs stand apart in the source and are kept apart here.

Key:
LD50 (mouse, ip.) = type: in vivo; conditions: in vivo, ip
Excerpt: (§1) | LD50 (mouse, ip.) (mg/kg)

various microorganisms = assay: Growth inhibition of various microorganisms / antibacterial activity (in words); type: cell-based; conditions: statement in words
Excerpt: (§2) Minimum growth inhibitory concentration (μg/ml)
(§3) by agar dilution method at pH 7.0

[1] = system: Salmonella typhosa ATCC 9992; assay: Minimum growth inhibitory concentration by agar dilution method; type: cell-based; conditions: for Minimum growth inhibitory concentration: Salmonella typhosa ATCC 9992, agar dilution method at pH 7.0
Escherichia coli ATCC 26 = assay: as above; type: cell-based; conditions: for Minimum growth inhibitory concentration: Escherichia coli ATCC 26, agar dilution method at pH 7.0; for MIC: Escherichia coli, ATCC26, pH 7, read-out: Minimum growth inhibitory concentration
Excerpt: as §2, §3

[2] = system: Klebsiella pneumoniae ATCC 10031; assay: as above; type: cell-based; conditions: for Minimum growth inhibitory concentration: Klebsiella pneumoniae ATCC 10031, agar dilution method at pH 7.0
Excerpt: as §2, §3

[3] = system: Pseudomonas cepacia ATCC 25608; assay: as above; type: cell-based; conditions: for Minimum growth inhibitory concentration: Pseudomonas cepacia ATCC 25608, agar dilution method at pH 7.0; for MIC: Burkholderia cepacia, ATCC25608, pH 7, read-out: Minimum growth inhibitory concentration
Excerpt: as §2, §3

[4] = system: Proteus vulgaris ATCC 6897; assay: as above; type: cell-based; conditions: for Minimum growth inhibitory concentration: Proteus vulgaris ATCC 6897; for MIC: Proteus vulgaris
Excerpt: as §2, §3

[5] = system: Shigella sonnei ATCC 9290; assay: as above; type: cell-based; conditions: for Minimum growth inhibitory concentration: Shigella sonnei ATCC 9290; for MIC: Shigella sonnei
Excerpt: as §2, §3

Bacillus subtilis #10707 = assay: as above; type: cell-based; conditions: for Minimum growth inhibitory concentration: Bacillus subtilis #10707, agar dilution method at pH 7.0; for MIC: Bacillus subtilis, pH 7, read-out: Minimum growth inhibitory concentration
Excerpt: as §2, §3

[6] = system: Staphylococcus aureus ATCC 6538P; assay: as above; type: cell-based; conditions: for Minimum growth inhibitory concentration: Staphylococcus aureus ATCC 6538P; for MIC: Staphylococcus aureus, ATCC6538P
Excerpt: as §2, §3

[7] = system: Serratia marcescens ATCC 4003; assay: as above; type: cell-based; conditions: for Minimum growth inhibitory concentration: Serratia marcescens ATCC 4003, agar dilution method at pH 7.0; for MIC: Serratia marcescens, ATCC4003, pH 7, read-out: Minimum growth inhibitory concentration
Excerpt: as §2, §3

mouse = assay: LD50 (mouse, ip.); type: in vivo
Excerpt: as §1

[8] = agar dilution method at pH 7.0, listed as Vb-1
[9] = agar dilution method at pH 7.0, listed as M-B
[10] = agar dilution method at pH 7.0, listed as M-D

COC1=C(C)C(=O)C2=C(C1=O)C(COC(N)=O)C1(O)C3C(CN21)N3C (stereo not drawn) [9-epi-mitomycin B]
LD50 (LD50 (mouse, ip.)): 7.5 mg/kg | inhibiting activity against the growth of various microorganisms / antibacterial activity (various microorganisms): high inhibiting activity | Minimum growth inhibitory concentration ([1]; listed as Vb-1): 6.3 µg/mL | Minimum growth inhibitory concentration (Escherichia coli ATCC 26; listed as Vb-1): 12.5 µg/mL | Minimum growth inhibitory concentration ([2]; listed as Vb-1): < 0.024 µg/mL | Minimum growth inhibitory concentration ([3]; listed as Vb-1): 25 µg/mL | Minimum growth inhibitory concentration [4, 8]: 0.049 µg/mL | Minimum growth inhibitory concentration [5, 8]: 6.3 µg/mL | Minimum growth inhibitory concentration (Bacillus subtilis #10707; listed as Vb-1): < 0.024 µg/mL | Minimum growth inhibitory concentration [6, 8]: 0.049 µg/mL | Minimum growth inhibitory concentration ([7]; listed as Vb-1): 3.1 µg/mL

CC1=C(N)C(=O)C2=C(C1=O)N1CC3C(N3C)C1(O)C2COC(N)=O (stereo not drawn) [9-epi-mitomycin D]
LD50 (mouse): 150 mg/kg | inhibiting activity against the growth of various microorganisms / antibacterial activity (various microorganisms): high inhibiting activity | MIC ([1]; Salmonella enterica, pH 7, read-out: Minimum growth inhibitory concentration): > 50 µg/mL | Minimum growth inhibitory concentration ([2]; listed as Va-1): 3.1 µg/mL | MIC [3]: > 50 µg/mL | MIC ([4]; ATCC6897, pH 7, read-out: Minimum growth inhibitory concentration, Proteus vulgaris ATCC 6897, agar dilution method at pH 7.0): 12.5 µg/mL (≈ 37.4 µM) | MIC ([5]; ATCC9290, pH 7, read-out: Minimum growth inhibitory concentration, Shigella sonnei ATCC 9290, agar dilution method at pH 7.0): > 50 µg/mL | MIC (Bacillus subtilis #10707): 6.3 µg/mL (≈ 18.8 µM) | MIC ([6]; pH 7, read-out: Minimum growth inhibitory concentration, Staphylococcus aureus ATCC 6538P, agar dilution method at pH 7.0): 25 µg/mL (≈ 74.8 µM) | MIC [7]: > 50 µg/mL

COC1=C(C)C(=O)C2=C(C1=O)C(COC(N)=O)C1(O)C3C(CN21)N3C (centres unmarked) [mitomycin B, Mitomycin B]
LD50 (mouse): 4.5 mg/kg | Minimum growth inhibitory concentration ([1]; listed as M-B): 10.0 µg/mL | Minimum growth inhibitory concentration (Escherichia coli ATCC 26; listed as M-B): > 10 µg/mL | Minimum growth inhibitory concentration ([2]; listed as M-B): 0.16 µg/mL | Minimum growth inhibitory concentration ([3]; listed as M-B): 10 µg/mL | Minimum growth inhibitory concentration [4, 9]: 0.078 µg/mL | Minimum growth inhibitory concentration [5, 9]: 5.0 µg/mL | Minimum growth inhibitory concentration (Bacillus subtilis #10707; listed as M-B): 0.020 µg/mL | Minimum growth inhibitory concentration [6, 9]: 0.039 µg/mL | Minimum growth inhibitory concentration ([7]; listed as M-B): 2.5 µg/mL

CO[C@@]12[C@H](COC(N)=O)C3=C(C(=O)C(C)=C(N)C3=O)N1C[C@@H]1N[C@@H]12 [mitomycin C, Mitomycin C]
MIC (Escherichia coli ATCC 26): 10 µg/mL (≈ 29.9 µM) | MIC ([2]; Klebsiella pneumoniae, ATCC10031, pH 7, read-out: Minimum growth inhibitory concentration): 0.0098 µg/mL (≈ 0.0293 µM) | MIC [3]: 10 µg/mL (≈ 29.9 µM) | MIC ([4]; ATCC6897, pH 7, read-out: Minimum growth inhibitory concentration): 0.078 µg/mL (≈ 0.233 µM) | MIC ([5]; ATCC9290, pH 7, read-out: Minimum growth inhibitory concentration): 5 µg/mL (≈ 15 µM) | MIC (Bacillus subtilis #10707): 0.02 µg/mL (≈ 0.0598 µM) | MIC ([6]; pH 7, read-out: Minimum growth inhibitory concentration): 0.156 µg/mL (≈ 0.467 µM) | MIC [7]: 5 µg/mL (≈ 15 µM)

CC1=C(N)C(=O)C2=C(C1=O)N1CC3C(N3C)C1(O)C2COC(N)=O (centres unmarked) [mitomycin D, 7-amino-7-demethoxy mitomycin B]
LD50 (mouse): 430 mg/kg | Minimum growth inhibitory concentration [1]: > 50 µg/mL | MIC (Escherichia coli ATCC 26): > 50 µg/mL | Minimum growth inhibitory concentration ([2]; listed as M-D): 6.3 µg/mL | Minimum growth inhibitory concentration [4, 10]: 25 µg/mL | Minimum growth inhibitory concentration [5, 10]: 50 µg/mL | Minimum growth inhibitory concentration (Bacillus subtilis #10707): 6.3 µg/mL | Minimum growth inhibitory concentration [6, 10]: 50 µg/mL
